How the values were obtained:
CDK2/CycE = target: T1, CDK2/CycE (Homo sapiens, UniProt P24941); assay: CDK2/CycE kinase assay (TR-FRET, 2 mM ATP); format: biochemical; conditions: 2 mM ATP (high ATP); median; read-out: CDK2/CyclinE, 2 mM ATP (high ATP), IC50 (median)
T1 construct: purchased ProQinase GmbH (Freiburg, Germany); host or cells: insect cells (Sf9)
How it was run: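 GST-tagged human CDK2 and CycE from Sf9 cells, about 10 ng/ml, pre-incubated 15 min at 22 °C with compound in Tris/HCl pH 8.0 buffer. Reaction with 2 mM ATP and 0.75 µM biotinylated peptide for 25 min at 22 °C. Phospho-RB antibody TR-FRET (665/620 nm ratio) read after 1 h; data normalised to no-inhibitor and no-enzyme controls.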

[1] = tested on: MDA-MB-231, human breast cancer cells; assay: Proliferation assay MDA-MB-231 (crystal violet, 4 days); format: cell-based; conditions: Homo sapiens, MDA-MB-231, 96 h, MDA-MB-231 cells, median, read-out: Prolif-MDA MB-231, IC50-[mol/l] (median)
How it was run: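 Plated 4,000 cells/well, 10% FCS; 24 h later treated 0.01-10 µmol/L cpd (DMSO 0.1%), 4 d. Fix glutaraldehyde, stain 0.1% crystal violet pH 3.0, elute acetic acid, A595. Normalized to t0 plate/untreated; 4-param IC50.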

[2] = target: T2, CYCLIN K (nuclear staining in CAL-120 cells) (Homo sapiens, UniProt O75909); assay: CYCLIN K nuclear protein level: immunofluorescence high content analysis (CAL-120); format: cell-based; conditions: 24 h, 50% reduction of nuclear CCNK staining intensity, median, read-out: CYCLIN K degradation IF, DC50-[mol/l] (median)
T2 construct: endogenous in cells; host or cells: CAL-120 human breast cancer cells (DSMZ ACC 459)
T2 sequence (O75909 whole entry): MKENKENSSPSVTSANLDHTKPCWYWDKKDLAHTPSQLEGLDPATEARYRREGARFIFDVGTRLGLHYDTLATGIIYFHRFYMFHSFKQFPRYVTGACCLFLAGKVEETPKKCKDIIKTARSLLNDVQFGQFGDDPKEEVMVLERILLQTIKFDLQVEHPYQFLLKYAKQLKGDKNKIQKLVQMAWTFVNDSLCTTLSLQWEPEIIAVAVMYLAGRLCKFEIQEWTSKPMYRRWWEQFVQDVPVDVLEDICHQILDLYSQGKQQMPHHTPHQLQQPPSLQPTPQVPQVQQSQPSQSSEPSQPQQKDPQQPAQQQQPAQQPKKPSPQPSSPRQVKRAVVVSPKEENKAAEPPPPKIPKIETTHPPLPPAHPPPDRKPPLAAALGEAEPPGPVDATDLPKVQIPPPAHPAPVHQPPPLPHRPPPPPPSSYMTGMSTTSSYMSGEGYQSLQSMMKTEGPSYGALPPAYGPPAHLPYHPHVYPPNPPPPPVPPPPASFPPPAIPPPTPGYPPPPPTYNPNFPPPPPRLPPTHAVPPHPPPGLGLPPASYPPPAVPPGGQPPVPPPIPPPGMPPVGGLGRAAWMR
T2 sequence (Q9NYV4 whole entry partner): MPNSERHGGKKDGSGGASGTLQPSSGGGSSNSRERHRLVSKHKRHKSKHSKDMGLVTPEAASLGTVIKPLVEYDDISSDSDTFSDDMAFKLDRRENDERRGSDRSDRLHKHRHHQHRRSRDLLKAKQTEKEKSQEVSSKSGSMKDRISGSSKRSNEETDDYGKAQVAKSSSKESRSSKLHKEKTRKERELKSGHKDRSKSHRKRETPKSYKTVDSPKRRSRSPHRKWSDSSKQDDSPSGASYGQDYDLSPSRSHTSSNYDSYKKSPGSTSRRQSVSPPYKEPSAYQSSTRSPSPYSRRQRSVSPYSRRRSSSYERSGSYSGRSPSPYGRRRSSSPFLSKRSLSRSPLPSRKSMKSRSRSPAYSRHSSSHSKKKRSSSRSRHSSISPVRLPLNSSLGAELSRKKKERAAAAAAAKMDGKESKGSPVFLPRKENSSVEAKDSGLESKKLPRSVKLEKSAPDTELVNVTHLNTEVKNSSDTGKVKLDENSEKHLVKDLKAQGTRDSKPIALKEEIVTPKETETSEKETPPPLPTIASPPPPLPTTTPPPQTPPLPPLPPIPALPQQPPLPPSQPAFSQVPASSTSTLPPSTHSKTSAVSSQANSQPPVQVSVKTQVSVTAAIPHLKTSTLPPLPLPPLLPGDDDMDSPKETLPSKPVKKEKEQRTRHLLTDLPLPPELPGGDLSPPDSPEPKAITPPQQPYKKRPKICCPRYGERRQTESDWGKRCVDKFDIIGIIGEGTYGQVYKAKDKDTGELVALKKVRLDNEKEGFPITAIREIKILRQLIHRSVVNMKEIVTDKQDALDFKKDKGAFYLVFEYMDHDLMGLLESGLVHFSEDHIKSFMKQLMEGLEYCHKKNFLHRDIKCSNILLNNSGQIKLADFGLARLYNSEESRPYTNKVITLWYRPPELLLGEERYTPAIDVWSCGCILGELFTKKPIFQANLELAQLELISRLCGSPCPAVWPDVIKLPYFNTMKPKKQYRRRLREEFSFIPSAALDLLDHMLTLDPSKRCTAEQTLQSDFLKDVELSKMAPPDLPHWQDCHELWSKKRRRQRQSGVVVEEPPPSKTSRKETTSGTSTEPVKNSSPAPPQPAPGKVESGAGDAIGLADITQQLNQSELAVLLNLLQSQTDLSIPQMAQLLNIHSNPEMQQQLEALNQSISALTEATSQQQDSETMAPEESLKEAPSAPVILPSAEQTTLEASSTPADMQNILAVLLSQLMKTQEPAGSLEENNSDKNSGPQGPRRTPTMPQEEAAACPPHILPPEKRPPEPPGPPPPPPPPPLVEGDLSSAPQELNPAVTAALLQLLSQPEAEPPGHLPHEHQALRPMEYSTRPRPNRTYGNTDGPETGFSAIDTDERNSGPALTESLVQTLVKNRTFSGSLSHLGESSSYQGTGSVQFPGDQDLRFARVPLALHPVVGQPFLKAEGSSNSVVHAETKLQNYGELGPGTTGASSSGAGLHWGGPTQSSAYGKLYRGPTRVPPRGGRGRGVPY
How it was run: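 CAL-120 breast cancer cells treated in dose-response for 24 h at 37 °C, PFA-fixed and immunostained for cyclin K with Hoechst counterstain. Confocal imaging quantified nuclear intensity; DC50 is the concentration giving 50% reduction of nuclear CCNK staining, normalized to DMSO and control.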

IC50 (CDK2/CycE) [nM] | IC50 [1] [nM] | DC50 [2] [nM] | Compound
> 20000 | 11.9 | 1.66 | FC(F)(F)Cc1cnn2c(NCc3nc4cc(Cl)c(Cl)cc4[nH]3)nc(N3CCOCC3)nc12 [Example 302, N-[(5,6-dichloro-1H-benzimidazol-2-yl)methyl]-2-(morpholin-4-yl)-8-(2,2,2-trifluoroethyl)pyrazolo[1,5-a][1,3,5]triazin-4-amine]
> 20000 | 26.5 | 0.546 | Fc1cccc2[nH]c(CNc3nc(N4CCOCC4)nc4c(CC(F)(F)F)cnn34)nc12 [Example 303, N-[(4-fluoro-1H-benzimidazol-2-yl)methyl]-2-(morpholin-4-yl)-8-(2,2,2-trifluoroethyl)pyrazolo[1,5-a][1,3,5]triazin-4-amine]
> 20000 | 5.05 | 0.863 | Fc1cc2nc(CNc3nc(N4CCOCC4)nc4c(C5CC5)cnn34)[nH]c2cc1Cl [Example 307, N-[(6-chloro-5-fluoro-1H-benzimidazol-2-yl)methyl]-8-cyclopropyl-2-(morpholin-4-yl)pyrazolo[1,5-a][1,3,5]triazin-4-amine]
> 20000 | 27.9 | 1.02 | Fc1ccc2[nH]c(CNc3nc(N4CCOCC4)nc4c(CC(F)(F)F)cnn34)nc2c1 [Example 308, N-[(5-fluoro-1H-benzimidazol-2-yl)methyl]-2-(morpholin-4-yl)-8-(2,2,2-trifluoroethyl)pyrazolo[1,5-a][1,3,5]triazin-4-amine]
> 20000 | 4.22 | 0.516 | Fc1cc2nc(CNc3nc(N4CCOCC4)nc4c(C5CC5)cnn34)[nH]c2cc1F [Example 318, 8-cyclopropyl-N-[(5,6-difluoro-1H-benzimidazol-2-yl)methyl]-2-(morpholin-4-yl)pyrazolo[1,5-a][1,3,5]triazin-4-amine]

More lines, now with the values behind:

Compound | IC50 (CDK2/CycE) [nM] | IC50 [1] [nM] | DC50 [2] [nM]
CCNC1CCN(c2nc(NCc3nc4ccccc4[nH]3)n3ncc(Br)c3n2)CC1 [Example 300] | > 19700 | 106 | 1.03
Clc1cc2nc(CNc3nc(N4CCOCC4)nc4c(C5CC5)cnn34)[nH]c2cc1Cl [Example 301, 8-cyclopropyl-N-[(5,6-dichloro-1H-benzimidazol-2-yl)methyl]-2-(morpholin-4-yl)pyrazolo[1,5-a][1,3,5]triazin-4-amine] | > 20000 | 7.75 | 0.59
OCC1CN(c2nc(NCc3nc4ccccc4[nH]3)n3ncc(Br)c3n2)C1 [Example 304, [1-(4-{[(1H-benzimidazol-2-yl)methyl]amino}-8-bromopyrazolo[1,5-a][1,3,5]triazin-2-yl)azetidin-3-yl]methanol] | 8430 | 299 | 12.4
CN(CC(C)(C)O)c1nc(NCc2nc3cc(Cl)c(Cl)cc3[nH]2)n2ncc(C3CC3)c2n1 [Example 306, 1-[(8-cyclopropyl-4-{[(5,6-dichloro-1H-benzimidazol-2-yl)methyl]amino}pyrazolo[1,5-a][1,3,5]triazin-2-yl)(methyl)amino]-2-methylpropan-2-ol] | > 20000 | 7.83 | 0.642
CN1CCN(c2nc(NCc3nc4cc(F)c(Cl)cc4[nH]3)n3ncc(C4CC4)c3n2)CC1 [Example 309, N-[(6-chloro-5-fluoro-1H-benzimidazol-2-yl)methyl]-8-cyclopropyl-2-(4-methylpiperazin-1-yl)pyrazolo[1,5-a][1,3,5]triazin-4-amine] | > 20000 | 6.31 | 0.914
Fc1ccc2[nH]c(CNc3nc(N4CC5CCC(C4)N5)nc4c(C(F)(F)F)cnn34)nc2c1F [Example 310, 2-(3,8-diazabicyclo[3.2.1]octan-3-yl)-N-[(4,5-difluoro-1H-benzimidazol-2-yl)methyl]-8-(trifluoromethyl)pyrazolo[1,5-a][1,3,5]triazin-4-amine] | > 18600 | 3.48 | 0.29
CN1CCN(c2nc(NCc3nc4cc(F)c(F)cc4[nH]3)n3ncc(C4CC4)c3n2)CC1 [Example 311, 8-cyclopropyl-N-[(5,6-difluoro-1H-benzimidazol-2-yl)methyl]-2-(4-methylpiperazin-1-yl)pyrazolo[1,5-a][1,3,5]triazin-4-amine] | > 20000 | 16.7 | 0.892
Cc1cc2nc(CNc3nc(N4CCN(C)CC4)nc4c(C5CC5)cnn34)[nH]c2cc1C [Example 312, 8-cyclopropyl-N-[(5,6-dimethyl-1H-benzimidazol-2-yl)methyl]-2-(4-methylpiperazin-1-yl)pyrazolo[1,5-a][1,3,5]triazin-4-amine] | > 12500 | 3.21 | 0.518
CN(CC(C)(C)O)c1nc(NCc2nc3cc(F)c(Cl)cc3[nH]2)n2ncc(C3CC3)c2n1 [Example 317, 1-[(4-{[(6-chloro-5-fluoro-1H-benzimidazol-2-yl)methyl]amino}-8-cyclopropylpyrazolo[1,5-a][1,3,5]triazin-2-yl)(methyl)amino]-2-methylpropan-2-ol] | 10700 | 5.21 | 0.347
